The values that follow are results of earlier work, collected in patent publication US11311620B2, “Neoadjuvant therapy for bladder cancer” (PHOTOCURE ASA, priority 2016, dated 2022).

The subject of one data set is bladder cancer. The conditions noted are these: neoadjuvant cisplatin-containing chemotherapy.
The test system of the next data set is MIBC. The note with it: patients who had cystectomy; HAL-guided TUR prior to cystectomy; 268 consecutive patients, retrospective.
For the next data set, the system named is NMIBC. The conditions noted are these: patients with NMIBC.

For `N.N.[Cl][Pt][Cl]` [cisplatin], in the data set with bladder cancer, the “absolute improvement in survival at 5 years” value is given as 5%.
For `CCCCCCOC(=O)CCC(=O)CN` [HAL, n-hexyl 5-amino-4-oxo-pentanoate], in the data set with MIBC, the “3-year overall survival (OS)” value is recorded as 65.0% and the “3-year recurrence-free survival (RFS)” value is given as 69.8%. For the same compound, in the data set on NMIBC, the “rate of residual tumor after TUR” value is listed as “reduced the rate of residual tumor” and the “recurrence free survival (RFS) rates compared to white light TUR alone” value was “superior recurrence free survival (RFS) rates”. In addition, the “detection of papillary tumors and flat carcinoma-in-situ (CIS) lesions” value in the data set with NMIBC (compared to white light alone) is “improved detection”.
